Biological target: Cannabinoid receptor 2 (Homo sapiens, UniProt P34972)
Test: Inverse agonist activity at human CB2 receptor expressed in HEK293 cells assessed as […] after 30 mins by HTRF assay

Sequence of Cannabinoid receptor 2 (P34972 whole entry): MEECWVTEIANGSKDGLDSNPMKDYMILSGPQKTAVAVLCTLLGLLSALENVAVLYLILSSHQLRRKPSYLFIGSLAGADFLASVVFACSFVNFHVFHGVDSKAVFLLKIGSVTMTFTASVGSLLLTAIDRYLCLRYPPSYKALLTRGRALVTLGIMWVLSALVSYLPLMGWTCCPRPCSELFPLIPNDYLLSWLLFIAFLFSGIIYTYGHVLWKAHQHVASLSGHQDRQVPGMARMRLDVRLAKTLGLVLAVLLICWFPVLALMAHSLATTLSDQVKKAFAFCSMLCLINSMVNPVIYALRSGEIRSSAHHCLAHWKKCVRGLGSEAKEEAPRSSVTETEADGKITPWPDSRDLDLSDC

Which EC50 does the source give for `Cn1c(=O)cc(NC2CCN(S(=O)(=O)C(F)(F)F)CC2)c2cc(C(c3ccc(Cl)cc3)c3ccc(Cl)cc3)ccc21` [US9266835, 49] here?
The EC50 was greater than 10 µM.

`O=c1cc(NC2CCN(S(=O)(=O)c3ccccc3)CC2)c2cc(C(c3ccc(Cl)cc3)c3ccc(Cl)cc3)ccc2[nH]1` [US9266835, 80] was tested. Which EC50 did it give?
Its EC50 is greater than 10 µM.

Which EC50 does the source give for `O=C(O)c1ccc(C(=O)N2CCC(Nc3cc(=O)[nH]c4ccc(C(c5ccc(Cl)cc5)c5ccc(Cl)cc5)cc34)CC2)cc1` [US9266835, 116] here?
Its EC50 is greater than 10 µM.

With `O=C(O)c1ccc(CN2CCC(Nc3cc(=O)[nH]c4ccc(C(c5ccc(Cl)cc5)c5ccc(Cl)cc5)cc34)CC2)cc1` [US9266835, 127] as the compound, how does the EC50 read?
Its EC50 is greater than 10 µM.

How did the EC50 turn out when `O=C(O)c1cccc(CN2CCC(Nc3cc(=O)[nH]c4ccc(C(c5ccc(Cl)cc5)c5ccc(Cl)cc5)cc34)CC2)c1` [US9266835, 129] was run?
The EC50 was greater than 10 µM.

Which EC50 does the source give for `COCCOc1cc(NC2CCN(S(=O)(=O)C(F)(F)F)CC2)c2cc(C(c3ccc(Cl)cc3)c3ccc(Cl)cc3)ccc2n1` [US9266835, 530] here?
The EC50 was greater than 10 µM.

For `O=S(=O)(N1CCC(Nc2ccnc3c(O)cc(C(c4ccc(Cl)cc4)c4ccc(Cl)cc4)cc23)CC1)C(F)(F)F` [US9266835, 541], which EC50 is on record?
Its EC50 is greater than 10 µM.

With `NCCCCOc1cc(C(c2ccc(Cl)cc2)c2ccc(Cl)cc2)cc2c(NC3CCN(S(=O)(=O)C(F)(F)F)CC3)ccnc12` [US9266835, 542] as the compound, how does the EC50 read?
The EC50 was greater than 10 µM.

— BindingDB's records for doi:10.1021/acs.jmedchem.8b01467 (Janssen Research & Development, 2018)
